Measurements reported in patent US4565861A, “Serirubicum” (Microbial Chemistry Research Foundation, priority 1983, dated 1986).
Converted amounts (≈) assume the structure as drawn. Read-outs that look alike come from different tables or passages of the source.

What was measured:
[1] = system: RNA synthesis in L1210 cells; assay: Inhibition of RNA synthesis in L1210 cells; format: cell-based
Excerpt: (§1) These findings indicated its therapeutic effect on tumors in experimental animals.

L1210 leukemia cells = format: in vivo, CDF1 mice; settings: i.p., daily for 10 days
Procedure: CDF1 mice were intraperitoneally implanted with 1×10^5 L1210 leukemia cells/mouse as a suspension. After the implantation, 0.25 ml of a solution containing the test compound was intraperitoneally injected into each mouse, each day, for 10 days, beginning on the day of implantation.
The increase of life span (%) compared with the control group consisting of mice administered with physiological saline solution instead of the test compound solution was calculated from the following equation: [formula]

L1210 cells = assay: Growth inhibition of cultured L1210 cells; format: cell-based
Excerpt: as §1

S. aureus MS9610 = assay: Antimicrobial activity, agar dilution method; format: cell-based
Excerpt: (§2) The antimicrobial activity of serirubicin according to the present invention was examined. It is expressed as minimum inhibitory concentration (MIC) determined by the agar dilution method.

S. aureus 209P = assay: Antimicrobial activity, agar dilution method; format: cell-based
Excerpt: as §2

S. aureus Smith = assay: Antimicrobial activity, agar dilution method; format: cell-based
Excerpt: as §2

B. subtilis PCI219 = assay: Antimicrobial activity, agar dilution method; format: cell-based
Excerpt: as §2

M. lysodeikticus IF03333 = assay: Antimicrobial activity, agar dilution method; format: cell-based
Excerpt: as §2

Coryn. bovis 1810 = assay: Antimicrobial activity, agar dilution method; format: cell-based
Excerpt: as §2

Sal. typhi T-63 = assay: Antimicrobial activity, agar dilution method; format: cell-based
Excerpt: as §2

B. cereus ATCC10702 = assay: Antimicrobial activity, agar dilution method; format: cell-based
Excerpt: as §2

S. aureus MS8710 = assay: Antimicrobial activity, agar dilution method; format: cell-based
Excerpt: as §2

[2] = system: Protein synthesis in L1210 cells; assay: Inhibition of protein synthesis in L1210 cells; format: cell-based; settings: at 10 μg/ml
Excerpt: as §1

[3] = system: DNA synthesis in L1210 cells; assay: Inhibition of DNA synthesis in L1210 cells; format: cell-based
Excerpt: as §1

CCC1(O)CC(OC2CC(N(C)C)C(OC3CC4OC5CC(=O)C(C)OC5OC4C(C)O3)C(C)O2)c2cc3c(c(O)c2C1OC1CC(N(C)C)C(OC2CC4OC5CC(=O)C(C)OC5OC4C(C)O2)C(C)O1)C(=O)c1cccc(O)c1C3=O (stereo not drawn) [serirubicin]
ID50 RNA synthesis ([1]; L1210 cells): 0.086 µg/mL (≈ 0.0738 µM)
Inhibition of RNA synthesis (in words) ([1]; cultured L1210 cells): RNA synthesis was inhibited at particularly low concentration
Increase of life span (L1210 leukemia cells; 0.031 mg/kg/day): 119%
Increase of life span (L1210 leukemia cells; 0.063 mg/kg/day): 113%
Increase of life span (L1210 leukemia cells; 0.125 mg/kg/day): 137%
Increase of life span (L1210 leukemia cells; 0.25 mg/kg/day): 274%
Increase of life span (L1210 leukemia cells; 0.5 mg/kg/day): 143%
Increase of life span (L1210 leukemia cells; 1.0 mg/kg/day): 149%
ID50 Growth (L1210 cells; L1210 cells): 0.004 µg/mL (≈ 0.00343 µM)
Inhibition of growth (in words) (L1210 cells; cultured L1210 cells): inhibited the growth of cultured L1210 cells at very low concentrations
MIC (S. aureus MS9610): 0.78 µg/mL (≈ 0.669 µM)
MIC (S. aureus 209P): 0.78 µg/mL (≈ 0.669 µM)
MIC (S. aureus Smith): 1.56 µg/mL (≈ 1.34 µM)
MIC (B. subtilis PCI219): 0.78 µg/mL (≈ 0.669 µM)
MIC (M. lysodeikticus IF03333): 0.78 µg/mL (≈ 0.669 µM)
MIC (Coryn. bovis 1810): 0.39 µg/mL (≈ 0.335 µM)
MIC (Sal. typhi T-63): > 3.12 µg/mL
MIC (B. cereus ATCC10702): 0.78 µg/mL (≈ 0.669 µM)
MIC (S. aureus MS8710): 0.78 µg/mL (≈ 0.669 µM)
Protein synthesis inhibition [2]: 32%
ID50 DNA synthesis [3]: 0.46 µg/mL (≈ 0.395 µM)
